Experimental data: US4559323A, “A41030 Antibiotics” (Eli Lilly and Company, priority 1984, dated 1985)
≈ marks a conversion by molar mass, not a printed value. Read-outs that look alike come from different tables or passages of the source.

Columns and labels:
Bacteroides vulgatis [1] = test: Agar-dilution MIC (anaerobes); format: cell-based; conditions: Table 14; Bacteroides vulgatis 1211
Solubility in solvents = format: physicochemical; conditions: solvents as named
From the text: The seven antibiotic factors are recovered from the fermentation and are obtained as a mixture, the A41030 complex. It will be recognized that the ratio of the factors in the A41030 complex will vary, depending upon the fermentation conditions used. The individual factors […], and G are separated and isolated as individual compounds, as hereinafter described.

[2] = Electrometric titration (pKa); format: physicochemical; conditions: electrometric titration in 66% dimethylformamide in water
Salmonella typhi = test: Agar-dilution MIC; format: cell-based; conditions: Table 17, 24 hours
Pc. constellatus = test: Agar-dilution MIC (anaerobes); format: cell-based, Peptococcus constellatus; conditions: Table 15; Pc. constellatus 1468
Experimental: (§1) The MIC values were determined by the agar-dilution method, and are recorded in Table 15, which follows.

Clostridium difficile [3] = format: cell-based; conditions: Table 16
From the text: The A41030 antibiotic factors A, B, C, D, E, F, and G, are also active against a number of strains of Clostridium difficile, as determined by the agar-dilution method.

[4] = system: Peptostreptococcus intermedius; test: Agar-dilution MIC (anaerobes); format: cell-based
S. pyogenes [5] = test: In vivo oral activity against S. pyogenes in mice
Bacteroides vulgatis [6] = test: Agar-dilution MIC (anaerobes); format: cell-based; conditions: Table 12; 24-hour; B. vulgatis 1563
From the text: (§2) The A41030 antibiotics, factors A, B, and C, are active against a genus of anaerobic bacteria identified as Bacteroides sp., the 24-hour MIC values being determined by the agar-dilution method, and are set forth in Table 12, which follows.

Bacteroides corrodens [7] = test: Agar-dilution MIC (anaerobes); format: cell-based; conditions: Table 12; 24-hour; B. corrodens 1874
From the text: as §2

Fusobacterium symbiosum = test: Agar-dilution MIC (anaerobes); format: cell-based; conditions: Table 14; Fusobacterium symbiosum 1470
Clostridium septicum = test: Agar-dilution MIC (anaerobes); format: cell-based; conditions: Table 14; Clostridium septicum 1128
[8] = system: Peptococcus asaccharolyticus; test: Agar-dilution MIC (anaerobes); format: cell-based; conditions: Table 15
Experimental: as §1

Peptococcus prevoti = test: Agar-dilution MIC (anaerobes); format: cell-based
[9] = system: Bacteroides melaninogenicus; test: Agar-dilution MIC (anaerobes); format: cell-based; conditions: Table 14; Bacteroides melaninogenicus 2736
Bacteroides corrodens [10] = test: Agar-dilution MIC (anaerobes); format: cell-based; conditions: Table 14; Bacteroides corrodens 1874
[11] = system: Fusobacterium necrophorum; test: Agar-dilution MIC (anaerobes); format: cell-based; conditions: Table 14; Fusobacterium necrophorum 6054A
Hemophilus influenzae = test: Agar-dilution MIC; format: cell-based; conditions: 24 hours
Clostridium perfringens = format: cell-based; conditions: Table 14; Clostridium perfringens 81
Staph. aureus = test: Experimental bacterial infection in mice, subcutaneous ED50; format: in vivo; conditions: two doses subcutaneously
Experimental: (§3) All of the A41030 factors tested have shown in vivo antimicrobial activity against experimental bacterial infections. When two doses of test compound were administered subcutaneously to mice in illustrative infections, the activity observed is measured as an ED50 value [effective dose in mg./kg. to protect fifty percent of the test animals: See Warren Wick, et al., J. Bacteriol. 81, 233-235 (1961)].

S. pyogenes [12] = test: as above; format: in vivo; conditions: two doses subcutaneously
Experimental: as §3

S. pneumoniae = test: as above; format: in vivo; conditions: two doses subcutaneously
Experimental: as §3

[13] = system: Peptostreptococcus anaerobius; test: Agar-dilution MIC (anaerobes); format: cell-based
B. thetaiotaomicron = format: cell-based
From the text: The agar-dilution procedure described by the International Collaborative study (ICS) group was used to determine the minimum inhibitory concentrations (MIC's).

Clostridium difficile [14] = format: cell-based; conditions: Table 14; Clostridium difficile 2994

With N[C@H]1C(=O)N[C@@H]2Cc3ccc(c(Cl)c3)Oc3cc4cc(c3O)Oc3ccc(cc3Cl)[C@@H](O)[C@@H]3NC(=O)C(NC(=O)[C@@H]4NC(=O)[C@@H](NC2=O)c2cc(O)cc(c2)Oc2cc1ccc2O)c1ccc(O)c(c1)-c1c(O)cc(O)cc1[C@@H](C(=O)O)NC3=O [A41030 factor B] as the molecule, how does the MIC (Bacteroides vulgatis [1]) read?
Its MIC is 32 µg/mL (≈ 26.7 µM).

And the Solubility (Solubility in solvents)?
Its Solubility is “soluble in the same solvents as factor A”.

And the “pKa, first titratable group” value [2]?
The value was “about 5.6”.

What about the “pKa, second titratable group” value [2] of the same molecule?
Its value is roughly 7.5.

And the MIC (Salmonella typhi; Salmonella typhi 1335)?
Its MIC is greater than 128 µg/mL.

And the MIC (Salmonella typhi; Salmonella typhi X514)?
The MIC was greater than 128 µg/mL.

What about the MIC (Pc. constellatus) of the same molecule?
The MIC was 0.5 µg/mL (≈ 0.417 µM).

What about the MIC (Clostridium difficile [3]; C. difficile 78) of the same molecule?
The MIC was 0.5 µg/mL (≈ 0.417 µM).

And the MIC (Clostridium difficile [3]; C. difficile 107B)?
Its MIC is 0.5 µg/mL (≈ 0.417 µM).

And the MIC (Clostridium difficile [3]; C. difficile 111F)?
The MIC was 1.0 µg/mL (≈ 0.834 µM).

And the MIC (Clostridium difficile [3]; C. difficile 1153)?
Its MIC is 1.0 µg/mL (≈ 0.834 µM).

And the MIC (Clostridium difficile [3]; C. difficile 2634)?
Its MIC is 1.0 µg/mL (≈ 0.834 µM).

What about the MIC (Clostridium difficile [3]; C. difficile 3424-5B) of the same molecule?
The MIC was 1.0 µg/mL (≈ 0.834 µM).

What about the MIC (Clostridium difficile [3]; C. difficile 3816) of the same molecule?
The MIC was 1.0 µg/mL (≈ 0.834 µM).

What about the MIC (Clostridium difficile [3]; C. difficile 3950) of the same molecule?
The MIC was 1.0 µg/mL (≈ 0.834 µM).

What about the MIC (Clostridium difficile [3]; C. difficile 6890) of the same molecule?
The MIC was 1.0 µg/mL (≈ 0.834 µM).

What about the MIC (Clostridium difficile [3]; C. difficile 8484) of the same molecule?
Its MIC is 1.0 µg/mL (≈ 0.834 µM).

And the MIC (Clostridium difficile [3]; C. difficile A-194)?
Its MIC is 1.0 µg/mL (≈ 0.834 µM).

What about the MIC (Clostridium difficile [3]; C. difficile A-195) of the same molecule?
Its MIC is 1.0 µg/mL (≈ 0.834 µM).

What about the MIC (Clostridium difficile [3]; C. difficile A-196) of the same molecule?
Its MIC is 1.0 µg/mL (≈ 0.834 µM).

What about the MIC (Clostridium difficile [3]; C. difficile A-279) of the same molecule?
The MIC was 1.0 µg/mL (≈ 0.834 µM).

And the MIC (Clostridium difficile [3]; C. difficile A-280)?
The MIC was 0.5 µg/mL (≈ 0.417 µM).

And the MIC (Clostridium difficile [3]; C. difficile A-281)?
The MIC was 1.0 µg/mL (≈ 0.834 µM).

What about the MIC (Clostridium difficile [3]; C. difficile WAL-2112) of the same molecule?
The MIC was 1.0 µg/mL (≈ 0.834 µM).

What about the MIC (Clostridium difficile [3]; C. difficile WAL-3657) of the same molecule?
Its MIC is 1.0 µg/mL (≈ 0.834 µM).

What about the MIC (Clostridium difficile [3]; C. difficile WAL-4268) of the same molecule?
Its MIC is 0.5 µg/mL (≈ 0.417 µM).

And the MIC ([4]; Table 14, Peptostreptococcus intermedius 1264)?
Its MIC is 0.5 µg/mL (≈ 0.417 µM).

What about the MIC ([4]; Table 15, Ps. intermedius 1264) of the same molecule?
The MIC was no more than 0.03 µg/mL.

And the MIC ([4]; Table 15, Ps. intermedius 1524)?
The MIC was 0.25 µg/mL (≈ 0.209 µM).

What about the MIC ([4]; Table 15, Ps. intermedius 1624) of the same molecule?
The MIC was 0.5 µg/mL (≈ 0.417 µM).

What about the “in vivo oral activity” value (S. pyogenes [5]) of the same molecule?
Its value is greater than 300 mg./kg.X2.

And the MIC (Bacteroides vulgatis [6])?
Its MIC is 32 µg/mL (≈ 26.7 µM).

What about the MIC (Bacteroides corrodens [7]) of the same molecule?
The MIC was 32 µg/mL (≈ 26.7 µM).

What about the MIC (Fusobacterium symbiosum) of the same molecule?
Its MIC is 1.0 µg/mL (≈ 0.834 µM).

What about the MIC (Clostridium septicum) of the same molecule?
The MIC was 4 µg/mL (≈ 3.34 µM).

And the MIC ([8]; Pc. asaccharolyticus 1302)?
The MIC was 0.125 µg/mL (≈ 0.104 µM).

What about the MIC ([8]; Pc. asaccharolyticus 1344) of the same molecule?
Its MIC is 0.5 µg/mL (≈ 0.417 µM).

And the MIC (Peptococcus prevoti; Table 14, Peptococcus prevoti 1281)?
The MIC was no more than 0.25 µg/mL.

What about the MIC (Peptococcus prevoti; Table 15, Pc. prevoti 1281) of the same molecule?
Its MIC is 0.5 µg/mL (≈ 0.417 µM).

And the MIC (Peptococcus prevoti; Table 15, Pc. prevoti 1293)?
Its MIC is 0.25 µg/mL (≈ 0.209 µM).

And the MIC (Peptococcus prevoti; Table 15, Pc. prevoti 1407)?
Its MIC is 0.5 µg/mL (≈ 0.417 µM).

What about the MIC [9] of the same molecule?
The MIC was 4 µg/mL (≈ 3.34 µM).

And the MIC (Bacteroides corrodens [10])?
The MIC was 64 µg/mL (≈ 53.4 µM).

What about the MIC [11] of the same molecule?
The MIC was 8 µg/mL (≈ 6.67 µM).

What about the MIC (Hemophilus influenzae; Table 17, Haemophilus influenzae 251) of the same molecule?
The MIC was 2 µg/mL (≈ 1.67 µM).

And the MIC (Hemophilus influenzae; Table 17, Haemophilus influenzae Brun)?
Its MIC is 8 µg/mL (≈ 6.67 µM).

And the MIC (Hemophilus influenzae; Table 18, Haemophilus influenzae 76)?
The MIC was 4 µg/mL (≈ 3.34 µM).

And the MIC (Hemophilus influenzae; Table 18, Haemophilus influenzae 312)?
Its MIC is 4 µg/mL (≈ 3.34 µM).

And the MIC (Hemophilus influenzae; Table 18, Haemophilus influenzae 4842)?
Its MIC is 4 µg/mL (≈ 3.34 µM).

What about the MIC (Hemophilus influenzae; Table 18, Haemophilus influenzae 16836) of the same molecule?
The MIC was 4 µg/mL (≈ 3.34 µM).

What about the MIC (Hemophilus influenzae; Table 18, Haemophilus influenzae Bond) of the same molecule?
Its MIC is 4 µg/mL (≈ 3.34 µM).

And the MIC (Hemophilus influenzae; Table 18, Haemophilus influenzae C.L.)?
Its MIC is 8 µg/mL (≈ 6.67 µM).

And the MIC (Hemophilus influenzae; Table 18, Haemophilus influenzae Mx366)?
Its MIC is 4 µg/mL (≈ 3.34 µM).

And the MIC (Hemophilus influenzae; Table 18, Haemophilus influenzae Mx371)?
Its MIC is 4 µg/mL (≈ 3.34 µM).

And the MIC (Clostridium perfringens)?
Its MIC is 0.5 µg/mL (≈ 0.417 µM).

And the ED50 (Staph. aureus)?
Its ED50 is less than 0.43 mg/kg.

What about the ED50 (S. pyogenes [12]) of the same molecule?
Its ED50 is 1.4 mg/kg.

What about the ED50 (S. pneumoniae) of the same molecule?
The ED50 was 1.4 mg/kg.

What about the MIC ([13]; Table 14, Peptostreptococcus anaerobius 1428) of the same molecule?
The MIC was no more than 0.25 µg/mL.

What about the MIC ([13]; Table 15, Ps. anaerobius 8) of the same molecule?
The MIC was 0.25 µg/mL (≈ 0.209 µM).

And the MIC ([13]; Table 15, Ps. anaerobius 52)?
Its MIC is 0.5 µg/mL (≈ 0.417 µM).

What about the MIC ([13]; Table 15, Ps. anaerobius 59) of the same molecule?
Its MIC is 0.25 µg/mL (≈ 0.209 µM).

What about the MIC ([13]; Table 15, Ps. anaerobius 1418) of the same molecule?
Its MIC is 0.06 µg/mL (≈ 0.05 µM).

What about the MIC ([13]; Table 15, Ps. anaerobius 1428) of the same molecule?
Its MIC is 0.25 µg/mL (≈ 0.209 µM).

What about the MIC ([13]; Table 15, Ps. anaerobius 1451) of the same molecule?
Its MIC is 0.25 µg/mL (≈ 0.209 µM).

And the MIC ([13]; Table 15, Ps. anaerobius 1477)?
Its MIC is 0.125 µg/mL (≈ 0.104 µM).

What about the MIC (B. thetaiotaomicron; Table 12, 24-hour, B. thetaiotaomicron 1438) of the same molecule?
Its MIC is 32 µg/mL (≈ 26.7 µM).

And the MIC (B. thetaiotaomicron; Table 12, 24-hour, B. thetaiotaomicron 1900A)?
Its MIC is 128 µg/mL (≈ 107 µM).

What about the MIC (B. thetaiotaomicron; Table 14, Bacteroides thetalotaomicron 1438) of the same molecule?
The MIC was 32 µg/mL (≈ 26.7 µM).

And the MIC (Clostridium difficile [14])?
Its MIC is 32 µg/mL (≈ 26.7 µM).
